Measured values as given in patent publication US20250101041A1, “POSITIVE ALLOSTERIC MODULATORS OF THE MUSCARINIC ACETYLCHOLINE RECEPTOR M4” (Vanderbilt University, priority 2022, published 2025).

Biological target: T1, human mAChR M4 (Homo sapiens, UniProt P08173)
T1 construct: expressed in transfected cells; host or cells: CHO-K1 (American Type Culture Collection), stably expressing hM4 and Gqi5
T1 sequence (P08173 1-479): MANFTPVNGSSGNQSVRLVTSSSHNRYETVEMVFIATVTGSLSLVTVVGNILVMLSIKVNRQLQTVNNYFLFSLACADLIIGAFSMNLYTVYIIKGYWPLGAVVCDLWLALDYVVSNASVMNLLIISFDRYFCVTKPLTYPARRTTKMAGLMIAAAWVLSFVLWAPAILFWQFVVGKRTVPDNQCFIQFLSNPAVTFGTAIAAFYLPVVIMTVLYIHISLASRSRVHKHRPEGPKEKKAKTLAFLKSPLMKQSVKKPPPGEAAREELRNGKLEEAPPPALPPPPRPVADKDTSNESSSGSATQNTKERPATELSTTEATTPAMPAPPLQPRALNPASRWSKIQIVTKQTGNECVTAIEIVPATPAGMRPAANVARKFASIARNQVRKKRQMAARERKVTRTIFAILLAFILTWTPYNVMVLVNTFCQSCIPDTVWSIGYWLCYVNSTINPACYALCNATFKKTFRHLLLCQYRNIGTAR
Assay: mAChR M4 cell-based functional assay: calcium mobilization (Fluo-4, FDSS), potentiation of EC20 acetylcholine response in hM4-Gqi5 CHO-K1 cells
Conditions: human M4; for Emax at 30 µM: CHO-K1, % ACh maximum at 30 μM; for EC50: potentiation of EC20 acetylcholine response, calcium mobilization
Summary of the method: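 CHO-K1 cells stably co-expressing human M4 and chimeric Gqi5, loaded with Fluo-4 AM (50 min, 37 °C). Compounds in 11-point 1:3 series added first; EC20 acetylcholine added at 144 s and again at 230 s. Calcium read on FDSS at 1 Hz; EC50 and Emax from four-parameter logistic fit of potentiated EC20 response.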

Row | SMILES | Emax at 30 µM | EC50 | Emax (%)* (% ACh maximum at 30 μM)
1 | Cc1ccc(Nc2cnc3c(c2)CN(c2nn4c(=O)ccnc4cc2C)CC3)c(F)n1 [Compound 2-115, 7-(3-((2-fluoro-6-methylpyridin-3-yl)amino)-7,8-dihydro-1,6-naphthyridin-6(5H)-yl)-8-methyl-4H-pyrimido[1,2-b]pyridazin-4-one] | 93% | 329 nM | 
2 | Cc1cc(=O)n2nc(N3CCc4ncc(N5CCCn6nccc65)cc4C3)c(C)c(C)c2n1 [Compound 2-23, 7-(3-(6,7-dihydropyrazolo[1,5-a]pyrimidin-4(5H)-yl)-7,8-dihydro-1,6-naphthyridin-6(5H)-yl)-2,8,9-trimethyl-4H-pyrimido[1,2-b]pyridazin-4-one] | 83% | 18 nM | 
3 | Cc1c(N2CCc3ncc(-c4ccc(N5CCOCC5)nc4)cc3C2)nn2c(=O)ccnc2c1C [Compound 1-99, 8,9-dimethyl-7-(3-(6-morpholinopyridin-3-yl)-7,8-dihydro-1,6-naphthyridin-6(5H)-yl)-4H-pyrimido[1,2-b]pyridazin-4-one] | 88% | 190 nM | 
4 | Cc1cc(F)c(F)c(-c2cnc3c(c2)CN(c2nn4c(=O)cc(C(F)F)nc4c(C)c2C)CC3)c1 [Compound 1-284, 7-(3-(2,3-difluoro-5-methylphenyl)-7,8-dihydro-1,6-naphthyridin-6(5H)-yl)-2-(difluoromethyl)-8,9-dimethyl-4H-pyrimido[1,2-b] pyridazin-4-one] | 77% | 1100 nM | 
5 | Cc1cc2nc(C)c(Cl)c(=O)n2nc1N1CCc2ncc(N3CCCn4nccc43)cc2C1 [Compound 2-16, 3-chloro-7-(3-(6,7-dihydropyrazolo[1,5-a]pyrimidin-4(5H)-yl)-7,8-dihydro-1,6-naphthyridin-6(5H)-yl)-2,8-dimethyl-4H-pyrimido[1,2-b]pyridazin-4-one] | 88% | 12 nM | 
6 | Cc1cc2nc(C(F)F)cc(=O)n2nc1N1CCc2ncc(Nc3ccnn3C)cc2C1 [Compound 2-27, 2-(difluoromethyl)-8-methyl-7-(3-((1-methyl-1H-pyrazol-5-yl)amino)-7,8-dihydro-1,6-naphthyridin-6(5H)-yl)-4H-pyrimido[1,2-b]pyridazin-4-one] | 86% | 41 nM | 
7 | Cc1c(N2CCc3ncc(-c4ccc(Cl)nc4Cl)cc3C2)nn2c(=O)cc(C(F)F)nc2c1C [Compound 1-174, 7-(3-(2,6-dichloropyridin-3-yl)-7,8-dihydro-1,6-naphthyridin-6(5H)-yl)-2-(difluoromethyl)-8,9-dimethyl-4H-pyrimido[1,2-b]pyridazin-4-one] | 82% | 450 nM | 
8 | Cc1cc2ncc(C3CCCC3)c(=O)n2nc1N1CCc2ncc(C(F)(F)F)cc2C1 [Compound 1-23, 3-Cyclopentyl-8-methyl-7-(3-(trifluoromethyl)-7,8-dihydro-1,6-naphthyridin-6(5H)-yl)-4H-pyrimido[1,2-b]pyridazin-4-one] | 75% | 363 nM | 
9 | Cc1cc(=O)n2nc(N3CCc4ncc(-c5cncc(F)c5)cc4C3)c(C)c(C)c2n1 [Compound 1-134, 7-(3-(5-fluoropyridin-3-yl)-7,8-dihydro-1,6-naphthyridin-6(5H)-yl)-2,8,9-trimethyl-4H-pyrimido[1,2-b]pyridazin-4-one] | 88% | 700 nM | 
10 | Cc1cc(=O)n2nc(N3CCc4ncc(-c5cc(F)cc(F)c5F)cc4C3)c(C)cc2n1 [Compound 1-253, 2,8-dimethyl-7-(3-(2,3,5-trifluorophenyl)-7,8-dihydro-1,6-naphthyridin-6(5H)-yl)-4H-pyrimido[1,2-b] pyridazin-4-one] | 54% | 2330 nM | 
11 | Cc1cc2nccc(=O)n2nc1N1CCc2ncc(-c3ccc(C#N)nc3C)cc2C1 [Compound 1-421, 6-methyl-5-(6-(8-methyl-4-oxo-4H-pyrimido[1,2-b]pyridazin-7-yl)-5,6,7,8-tetrahydro-1,6-naphthyridin-3-yl)picolinonitrile] | 97% | 2420 nM | 
12 | Cc1cc2nccc(=O)n2nc1N1CCc2ncc(-c3c(C)noc3C)cc2C1 [Compound 1-416, 7-(3-(3,5-dimethylisoxazol-4-yl)-7,8-dihydro-1,6-naphthyridin-6(5H)-yl)-8-methyl-4H-pyrimido[1,2-b]pyridazin-4-one] | 89% | 797 nM | 
13 | Cc1cc2nccc(=O)n2nc1N1CCc2ncc(N3CCOC(c4ccccc4F)C3)cc2C1 (stereo not shown) [Compound 2-59, 7-(3-(2-(2-fluorophenyl)morpholino)-7,8-dihydro-1,6-naphthyridin-6(5H)-yl)-8-methyl-4H-pyrimido[1,2-b]pyridazin-4-one] | 74% | 268 nM | 
14 | COCc1cc(=O)n2nc(N3Cc4cc(C(F)(F)F)cnc4C(C)C3)c(C)c(C)c2n1 (single isomer, unassigned) [Compound 1-377] |  | 365 nM | 112%
15 | Cc1c(N2CCc3ncc(-c4cnn(CCN(C)C)c4)cc3C2)nn2c(=O)cc(C(F)F)nc2c1C [Compound 1-308, 2-(difluoromethyl)-7-(3-(1-(2-(dimethylamino)ethyl)-1H-pyrazol-4-yl)-7,8-dihydro-1,6-naphthyridin-6(5H)-yl)-8,9-dimethyl-4H-pyrimido[1,2-b]pyridazin-4-one] | 78% | 313 nM | 
16 | Cc1cc2nc(C(F)F)cc(=O)n2nc1N1CCc2ncc(N3CCCn4nccc43)cc2C1 [Compound 2-14, 2-(difluoromethyl)-7-(3-(6,7-dihydropyrazolo[1,5-a]pyrimidin-4(5H)-yl)-7,8-dihydro-1,6-naphthyridin-6(5H)-yl)-8-methyl-4H-pyrimido[1,2-b]pyridazin-4-one] | 88% | 22 nM | 
17 | Cc1ccncc1-c1cnc2c(c1)CN(c1nn3c(=O)ccnc3cc1C)CC2 [Compound 1-403, 8-methyl-7-(3-(4-methylpyridin-3-yl)-7,8-dihydro-1,6-naphthyridin-6(5H)-yl)-4H-pyrimido[1,2-b] pyridazin-4-one] | 86% | 112 nM | 
18 | COc1ccncc1-c1cnc2c(c1)CN(c1nn3c(=O)cc(C)nc3cc1C)CC2 [Compound 1-295, 7-(3-(4-methoxypyridin-3-yl)-7,8-dihydro-1,6-naphthyridin-6(5H)-yl)-2,8-dimethyl-4H-pyrimido[1,2-b]pyridazin-4-one] | 96% | 89 nM | 
19 | Cc1c(C2CC2)c(N2CCc3ncc(C(F)(F)F)cc3C2)nn2c(=O)ccnc12 [Compound 1-111, 8-cyclopropyl-9-methyl-7-(3-(trifluoromethyl)-7,8-dihydro-1,6-naphthyridin-6(5H)-yl)-4H-pyrimido[1,2-b]pyridazin-4-one] | 61% | 2450 nM | 
20 | Cc1c(N2CCc3ncc(-c4cnc5ccccc5c4)cc3C2)nn2c(=O)ccnc2c1C [Compound 1-224, 8,9-dimethyl-7-(3-(quinolin-3-yl)-7,8-dihydro-1,6-naphthyridin-6(5H)-yl)-4H-pyrimido[1,2-b]pyridazin-4-one] | 60% | 651 nM | 
21 | Cc1c(N2CCc3ncc(-c4cnn(C5CCCCO5)c4)cc3C2)nn2c(=O)ccnc2c1C (stereo not shown) [Compound 1-150, 8,9-dimethyl-7-(3-(1-(tetrahydro-2H-pyran-2-yl)-1H-pyrazol-4-yl)-7,8-dihydro-1,6-naphthyridin-6(5H)-yl)-4H-pyrimido[1,2-b]pyridazin-4-one] | 74% | 511 nM | 
22 | COCc1cc(=O)n2nc(N3CCc4ncc(-c5cnn6c5COCC6)cc4C3)c(C)c(C)c2n1 [Compound 1-380, 7-(3-(6,7-dihydro-4H-pyrazolo[5,1-c][1,4]oxazin-3-yl)-7,8-dihydro-1,6-naphthyridin-6(5H)-yl)-2-(methoxymethyl)-8,9-dimethyl-4H-pyrimido[1,2-b] pyridazin-4-one] | 95% | 205 nM | 
23 | Cc1cc(F)c(F)cc1-c1cnc2c(c1)CN(c1nn3c(=O)ccnc3c(C)c1C)CC2 [Compound 1-446, 7-(3-(4,5-difluoro-2-methylphenyl)-7,8-dihydro-1,6-naphthyridin-6(5H)-yl)-8,9-dimethyl-4H-pyrimido[1,2-b]pyridazin-4-one] | 85% | 574 nM | 
24 | Cc1c(N2CCc3ncc(N4C(=O)Cc5ncccc54)cc3C2)nn2c(=O)ccnc2c1C [Compound 2-149, 8,9-dimethyl-7-(3-(2-oxo-2,3-dihydro-1H-pyrrolo[3,2-b]pyridin-1-yl)-7,8-dihydro-1,6-naphthyridin-6(5H)-yl)-4H-pyrimido[1,2-b]pyridazin-4-one] | 50% | 1050 nM | 
25 | Cc1ncc(-c2cnc3c(c2)CN(c2nn4c(=O)c(Cl)cnc4cc2C)CC3)s1 [Compound 1-13, 3-chloro-8-methyl-7-(3-(2-methylthiazol-5-yl)-7,8-dihydro-1,6-naphthyridin-6(5H)-yl)-4H-pyrimido[1,2-b]pyridazin-4-one] | 79% | 373 nM | 
26 | Cc1cc(=O)n2nc(N3CCc4ncc(-c5ccccc5C5CC5)cc4C3)c(C)cc2n1 [Compound 1-231, 7-(3-(2-cyclopropylphenyl)-7,8-dihydro-1,6-naphthyridin-6(5H)-yl)-2,8-dimethyl-4H-pyrimido[1,2-b]pyridazin-4-one] | 56% | 859 nM | 
